The source of these data is patent US20120309750A1, “5-MEMBERED HETEROCYCLE DERIVATIVES AND MANUFACTURING PROCESS THEREOF” (ILDONG PHARM CO., LTD., priority 2010, published 2012).

The subject of series [1] is A2780 Human ovarian cancer cells. Kind of series: In vivo antitumor efficacy, A2780 subcutaneous xenograft. Conditions: 200 mg/kg po qdx5, 2 weeks, A2780 xenograft in female Balb/c nude mice. The procedure: A2780 Human ovarian cancer cells were established as subcutaneous xenografts by injection of 8×10^6 cells into the flanks of adult female Balb/c nude mice. Mice with established tumors (50-200 mm^3) were selected for study (n=3-6/treatment group). The test compounds were formulated in ethanol-PEG400-DW and administered orally (po) at a dose of 200 mg/kg. The vehicle alone was administered to control groups. Animals were dosed 5 days per week (Monday through Friday) for 2 consecutive weeks. Animals were weighed and tumor size was determined twice weekly by caliper measurements, and tumor volumes were calculated (volume=[l×w^2]/2(mm^3), where l and w refer to the larger and smaller dimensions collected at each measurement). The mean tumor volumes of each group were calculated. The change in mean treated tumor volume was divided by the change in mean control tumor volume, multiplied by 100 and subtracted from 100% to give the tumor growth inhibition for each group.

The subject of series [2] is human colorectal cancer cells (HCT116). Briefly: Growth inhibition assay (cytotoxicity) in HCT116. Type of series: cell-based. Conditions: HCT-116. The procedure:
(§1) For present invention, the ATPase activity of yeast HSP90 was measured using malachite green assay. Formula I compounds for primary antitumoral activity were treated in human colorectal cancer cells (HCT116) showing increased expression levels of HSP90 client protein and cotoxicity IC50 values was measured as a result.

Another series concerns the target yeast HSP90 (Saccharomyces cerevisiae, UniProt P02829). Kind of series: Hsp90 ATPase assay (malachite green). The class given is biochemical. The procedure: as §1
A short description of series [3]: Mouse pharmacokinetics of prodrug after oral gavage. Type of series: in vivo, Balb/c male mice. The settings on record: single PO dose 100 mg/kg. The procedure:
Pharmacokinetics test was carried out in order to confirm the change from invented prodrugs to parent compounds in vivo. Balb/c male mice are dosed with a prodrug by oral gavages. A single administration of a prodrug is given and a dose volume of 10 mL/kg is used for PO doses.
Blood samples are collected in lithium heparin coated tubes at 10, 20, 30, 60, 120 min. Plasma is isolated by centrifugation and frozen before analysis. Plasma samples are prepared by liquid-liquid extraction with Ethyl acetate containing internal standard. Quantification is by using a LC-MS/MS method specific to the selected compound. Animals that had been dosed the selected compound were analyzed for prodrug and the parent compound. Pharmacokinetics parameters are calculated using WinNonLinnon compartmental analysis software.

The structures appear in SMILES notation.

Chain of yeast HSP90 (P02829 whole entry): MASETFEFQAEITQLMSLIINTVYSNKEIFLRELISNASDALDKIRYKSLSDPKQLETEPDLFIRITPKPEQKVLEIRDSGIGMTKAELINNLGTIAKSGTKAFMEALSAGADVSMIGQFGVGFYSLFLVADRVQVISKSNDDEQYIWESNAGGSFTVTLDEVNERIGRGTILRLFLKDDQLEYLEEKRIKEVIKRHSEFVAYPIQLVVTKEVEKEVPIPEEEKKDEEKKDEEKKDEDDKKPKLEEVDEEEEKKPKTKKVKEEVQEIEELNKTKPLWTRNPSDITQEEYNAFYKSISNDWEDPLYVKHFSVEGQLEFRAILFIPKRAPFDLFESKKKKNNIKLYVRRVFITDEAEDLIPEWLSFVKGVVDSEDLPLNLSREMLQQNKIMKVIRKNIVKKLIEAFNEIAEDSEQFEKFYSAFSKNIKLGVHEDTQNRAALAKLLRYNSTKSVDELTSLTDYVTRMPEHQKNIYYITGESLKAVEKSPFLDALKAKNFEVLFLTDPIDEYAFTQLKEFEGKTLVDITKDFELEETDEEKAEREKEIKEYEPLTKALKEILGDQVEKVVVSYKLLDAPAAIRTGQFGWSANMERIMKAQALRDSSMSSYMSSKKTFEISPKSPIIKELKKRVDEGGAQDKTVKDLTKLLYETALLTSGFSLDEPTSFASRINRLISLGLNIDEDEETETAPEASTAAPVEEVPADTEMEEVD

`CCNC(=O)c1noc(-c2cc(C(C)C)c(O)cc2O)c1-c1noc(C)n1` [Compound I-60, 5-(2,4-Dihydroxy-5-isopropylphenyl)-N-ethyl-4-(5-methyl-1,2,4-oxadiazol-3-yl) isoxazole-3-carboxamide]: the “% TGI” value in series [1] came to 50%. In addition, the IC50 (in series [2]; on yeast HSP90) was below 500 nM each time.

Take `CCNC(=O)c1noc(-c2cc(C(C)C)c(OC(=O)[C@@H]3CCCN3C(=O)OC(C)(C)C)cc2OC(=O)C2CCCN2C(=O)OC(C)(C)C)c1-c1ccn(C)n1` (stereo partly drawn) [II-8, (2S,2′S)-1-tert-Butyl^′2,2-4-(3-(ethylcarbamoyl)-4-(1-methyl-1H-pyrazol-3-yl)isoxazol-5-yl)-6-isopropyl-1,3-phenylene dipyrrolidine-1,2-dicarboxylate]: the “exposure of the active pharmaceutical agent (I-97) relative to the starting dose” value in series [3] is on record as “optimal exposure”.

As for `CCNC(=O)c1noc(-c2cc(C(C)C)c(O)cc2O)c1-c1noc(N2CCCC2)n1` [Compound I-69, 5-(2,4-Dihydroxy-5-isopropylphenyl)-N-ethyl-4-(5-(pyrrolidin-1-yl)-1,2,4-oxadiazol-3-yl)isoxazole-3-carboxamide], the IC50 (usually the midpoint of a concentration-inhibition curve) in series [2] was below 500 nM; against yeast HSP90, 500 to 1000 nM.

As for `CCNC(=O)c1cc(-c2c(C(=O)NCC)n[nH]c2-c2cc(C(C)C)c(O)cc2O)on1` [Compound I-29, 5-(5-(2,4-Dihydroxy-5-isopropylphenyl)-3-(ethylcarbamoyl)-1H-pyrazol-4-yl)-N-ethylisoxazole-3-carboxamide], the 50% inhibitory concentration (IC50) (in series [2]; at yeast HSP90) was above 1000 nM each time.

In the case of `CCNC(=O)c1noc(-c2cc(C(C)C)c(O)cc2O)c1-c1cc(C(N)=O)no1` [Compound I-21, 5-(2,4-Dihydroxy-5-isopropylphenyl)-N^3-ethyl-4,5′-biisoxazole-3,3′-dicarboxamide], the results for the IC50 (in series [2]; against yeast HSP90) were below 500 nM and 500 to 1000 nM, respectively.

Turning to `CCNC(=O)c1noc(-c2cc(C(C)C)c(O)cc2O)c1-c1noc(COC)n1` [Compound I-75, 5-(2,4-Dihydroxy-5-isopropylphenyl)-N-ethyl-4-(5-(methoxymethyl)-1,2,4-oxadiazol-3-yl)isoxazole-3-carboxamide], the IC50 (in series [2]; against yeast HSP90) was below 500 nM in each case.

Regarding `CCC(=O)NCc1noc(-c2cc(C(C)C)c(O)cc2O)c1-c1ccsc1` [Compound I-4, N-((5-(2,4-Dihydroxy-5-isopropylphenyl)-4-(thiophen-3-yl)isoxazol-3-yl)methyl)propionamide], the IC50 (in series [2]; at yeast HSP90) was above 1000 nM each time.

Turning to `CCNC(=O)c1noc(-c2cc(C(C)C)c(O)cc2O)c1-c1noc(CC)n1` [Compound I-62, 5-(2,4-Dihydroxy-5-isopropylphenyl)-N-ethyl-4-(5-ethyl-1,2,4-oxadiazol-3-yl)isoxazole-3-carboxamide], the IC50 (in series [2]; on yeast HSP90) was below 500 nM in each case.

Turning to `CCNC(=O)c1noc(-c2cc(C(C)C)c(O)cc2O)c1-c1cc(COCC(N)=O)no1` [Compound I-36, 3′-((2-Amino-2-oxoethoxy)methyl)-5-(2,4-dihydroxy-5-isopropylphenyl)-N-ethyl-4,5′-biisoxazole-3-carboxamide], the IC50 (in series [2]; on yeast HSP90) was below 500 nM in each case.

On to `CCNC(=O)c1noc(-c2cc(C(C)C)c(O)cc2O)c1-c1nnnn1C` [Compound I-11, 5-(2,4-Dihydroxy-5-isopropylphenyl)-N-ethyl-4-(1-methyl-1H-tetrazol-5-yl)isoxazole-3-carboxamide], for which the half-maximal inhibitory concentration (IC50) (in series [2]; against yeast HSP90) was below 500 nM in each case.

Regarding `CCNC(=O)c1noc(-c2cc(C(C)C)c(O)cc2O)c1-c1cc(C(=O)O)no1` [Compound I-26, 5-(2,4-Dihydroxy-5-isopropylphenyl)-3-(ethylcarbamoyl)-4,5′-biisoxazole-3′-carboxylic acid], the IC50 (in series [2]; against yeast HSP90) was above 1000 nM each time.

On to `CCCN(CCC)Cc1cc(-c2c(C(=O)NCC)noc2-c2cc(C(C)C)c(O)cc2O)on1` [Compound I-45, 5-(2,4-Dihydroxy-5-isopropylphenyl)-3′-((dipropylamino)methyl)-N-ethyl-4,5′-biisoxazole-3-carboxamide], for which the IC50 (in series [2]; at yeast HSP90) was below 500 nM throughout.

Turning to `CCNC(=O)c1noc(-c2cc(C(C)C)c(O)cc2O)c1-c1noc(C(=O)N2CCOCC2)n1` [Compound I-67, 5-(2,4-Dihydroxy-5-isopropylphenyl)-N-ethyl-4-(5-(morpholine-4-carbonyl)-1,2,4-oxadiazol-3-yl)isoxazole-3-carboxamide], the IC50 (in series [2]; on yeast HSP90) was 500 to 1000 nM each time.
